From patent US5118681A (priority 1989, dated 1992)
≈ marks a conversion by molar mass, not a printed value.

Tests used:
[1] = tested on: Ps.ae; assay: Minimum Inhibitory Concentration Test, alternate (Table 4), Ps.ae; type: cell-based, Pseudomonas aerugenosa; conditions: Pseudomonas, TSB, 72 hours
[2] = tested on: S.a; assay: Minimum Inhibitory Concentration Test, alternate (Table 4), S.a; type: cell-based, Staphylococcus aureus; conditions: Staphylococcus aureus, TSB, 72 hours
Method: (§1) A 125 μl aliquot of 10,000 ppm test compound in acetone was added to 4.88 ml of TSB to provide a 250 ppm solution. From this solution, 100 μL was transferred to the first row of two microtiter plate columns. Both replicates and five additional compounds were all serially diluted 1:1 to a final concentration of 0.8 ppm in TSB.
(§2) Inoculation was accomplished by diluting a 24 hr Ps fl culture, four mls per 36 mls of phosphate buffer solution. A Dynatech autoinoculator was used to transfer 1.5 μl of this cell suspension to the microtiter plates. The plates were incubated at 30° C. for 3 days before the lowest concentration at which no growth occurs was recorded in the database. The SOK data and MIC test data on Ps.fl, Ps.ae, E.c, and S.a. bacteria and Candida albicans (C.alb), A.n and A.p fungi are listed in Table 4.

[3] = tested on: E.c; assay: Minimum Inhibitory Concentration Test, alternate (Table 4), E.c; type: cell-based, Escherichia coli; conditions: Escherichia coli, TSB, 72 hours
Method: as §1, §2

[4] = tested on: Piricularia oryzae; assay: whole plant or invertebrate; type: in vivo; conditions: Pyricularia oryzae, read-out: % control RB
[5] = tested on: Puccinia graminis (f. sp. tritici Race 15B-2); assay: whole plant or invertebrate; type: in vivo; conditions: 336 h, read-out: % control WSR
[6] = tested on: Pellicularia filamentosa (f. sp. sasiki); assay: whole plant or invertebrate; type: in vivo; conditions: 120 h; read-out: % control RSB
[7] = tested on: A.p; assay: Minimum Inhibitory Concentration Test, alternate (Table 4), A.p; type: cell-based; conditions: Aureobasidium pullulans, TSB, 72 hours
Method: as §1, §2

[8] = tested on: Pseudomonas fluorescens; assay: Minimum Inhibitory Concentration Test, alternate (Table 4), Ps.fl; type: cell-based; conditions: Pseudomonas fluorescens, TSB, 72 hours, 30° C
Summary of the method: (§3)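 Compound in acetone was diluted into TSB and serially diluted 1:1 from 250 ppm down to 0.8 ppm, in duplicate. Plates were inoculated with diluted 24 h culture and incubated 3 days at 30° C; MIC recorded as lowest concentration with no growth.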

[9] = tested on: A.n; assay: Minimum Inhibitory Concentration Test, alternate (Table 4), A.n; type: cell-based, Aspergillus niger; conditions: Aspergillus niger, TSB, 72 hours
Summary of the method: as §3

[10] = tested on: Pseudoperonospora cubensis; assay: whole plant or invertebrate; type: in vivo; conditions: Pseudoperonospora cubensis, in Cucumis sativus, 168 h; read-out: % control CDM
[11] = tested on: Phytophthora infestans; assay: whole plant or invertebrate; type: in vivo; conditions: Phytophthora infestans, in Solanum lycopersicum, 96 h, read-out: % control TLB
[12] = tested on: Candida albicans (C.alb); assay: Minimum Inhibitory Concentration Test, alternate (Table 4), C.alb; type: cell-based; conditions: Candida albicans, TSB, 72 hours
Method: as §1, §2

[13] = tested on: Erysiphe graminis (f. sp. tritici); assay: whole plant or invertebrate; type: in vivo; conditions: Blumeria graminis; read-out: % control WPM
[14] = tested on: Puccinia recondita (f. sp. tritici Races PKB and PLD); assay: whole plant or invertebrate; type: in vivo; conditions: Puccinia recondita, 240 h; read-out: % control WLR

SMILES	MIC [1]	MIC [2]	MIC [3]	pest or weed control at 300 ppm [5]	pest or weed control at 300 ppm [6]	MIC [7]	MIC [8]	MIC [9]	pest or weed control at 100 ppm [11]	MIC [12]	pest or weed control at 100 ppm [13]	pest or weed control at 200 ppm [4]	pest or weed control at 200 ppm [10]	pest or weed control at 200 ppm [11]	pest or weed control at 100 ppm [14]	pest or weed control at 100 ppm [4]	pest or weed control at 100 ppm [5]	pest or weed control at 100 ppm [6]	further results
CCCCCNC(=O)/C=C\SC(C(C)=O)C(C)=O [Example 3, N-n-pentyl-cis-3-[3-(2,4-pentanedionyl)thio]acrylamide]	> 500 µg/mL	125 µg/mL (≈ 461 µM)	125 to 250 µg/mL (≈ 461 to 921 µM)	60%	0%	8 µg/mL (≈ 29.5 µM)	> 500 µg/mL	31 to 63 µg/mL (≈ 114 to 232 µM)	40%	31 µg/mL (≈ 114 µM)	0%								pest or weed control at 300 ppm [4]: 0%; pest or weed control at 300 ppm [10]: 98%
CCCCCCCNC(=O)/C=C\SC(C(C)=O)C(C)=O [Example 4, N-n-heptyl-cis-3-[3-(2,4-pentanedionyl)thio]acrylamide]	> 500 µg/mL	63 µg/mL (≈ 210 µM)	> 500 µg/mL	80%	0%	< 4 µg/mL	> 500 µg/mL	16 to 63 µg/mL (≈ 53.4 to 210 µM)		< 4 µg/mL	0%	60%	98%	100%					
CCCCCCNC(=O)/C=C\SC(C(C)=O)C(C)=O [Example 5, N-n-hexyl-cis-3-[3-(2,4-pentanedionyl)thio]acrylamide]	> 500 µg/mL	63 to 125 µg/mL (≈ 221 to 438 µM)	> 500 µg/mL	70%	0%	< 4 µg/mL	> 500 µg/mL	31 to 63 µg/mL (≈ 109 to 221 µM)		16 µg/mL (≈ 56.1 µM)		90%	100%	95%					pest or weed control at 300 ppm [13]: 0%
CCCCCCNC(=O)/C(Cl)=C(/Cl)SC(C(C)=O)C(C)=O [Example 7, N-n-hexyl-2,3-dichloro-cis-3-[3-(2,4-pentanedionyl)thio]acrylamide]	500 µg/mL (≈ 1410 µM)	125 µg/mL (≈ 353 µM)	125 µg/mL (≈ 353 µM)	60%	0%	8 µg/mL (≈ 22.6 µM)	250 to 500 µg/mL (≈ 706 to 1410 µM)	8 to 63 µg/mL (≈ 22.6 to 178 µM)		31 µg/mL (≈ 87.5 µM)									pest or weed control at 300 ppm [10]: 95%; pest or weed control at 300 ppm [11]: 20%; pest or weed control at 300 ppm [13]: 0%
CCCCCCCCNC(=O)/C=C\SC(C(=O)CC)C(=O)CC [Example 8, N-n-octyl-cis-3-[4-(3,5-heptanedionyl)thio]acrylamide]							> 500 µg/mL	> 500 µg/mL				95%	95%	92%					pest or weed control at 200 ppm [5]: 60%; pest or weed control at 200 ppm [6]: 0%; pest or weed control at 200 ppm [13]: 0%
CCCCCCCCNC(=O)/C=C\SC1C(=O)CC(C)(C)CC1=O [Example 9, N-n-octyl-cis-3-[2-(5,5-dimethyl-1,3-cyclohexanedionyl)thio]acrylamide]							> 500 µg/mL	> 500 µg/mL				50%	99%	70%					pest or weed control at 200 ppm [5]: 60%; pest or weed control at 200 ppm [6]: 0%; pest or weed control at 200 ppm [13]: 0%
CCCCCCCCNC(=O)/C=C\SC(C(C)=O)C(=O)CC (stereo not drawn) [Example 10, N-n-octyl-cis-3-[3-(2,4-hexanedionyl)thio]acrylamide]							> 500 µg/mL	> 500 µg/mL				95%	100%	98%					pest or weed control at 200 ppm [5]: 80%; pest or weed control at 200 ppm [6]: 0%; pest or weed control at 200 ppm [13]: 30%
CCCCCCCCNC(=O)/C=C\SC(C(=O)Nc1ccccc1OC)C(=O)OCC (stereo not drawn) [Example 53, N-n-octyl-cis-3-{2-[ethyl-N-(2-methoxyphenyl)malonamido]thio}acrylamide]							> 500 µg/mL	500 µg/mL (≈ 1110 µM)	97%		0%				0%	90%	0%	0%	pest or weed control at 100 ppm [10]: 100%
CCCCCCCCNC(=O)/C=C\SC(C(=O)Nc1cccc(C)c1)C(=O)OCC (stereo not drawn) [Example 54, N-n-octyl-cis-3-{2-[ethyl-N-(3-methylphenyl)malonamido]thio}acrylamide]							> 500 µg/mL	> 500 µg/mL	80%		0%				0%	87%	0%	0%	pest or weed control at 100 ppm [10]: 97%
CCCCCCCCNC(=O)/C=C\SC(C(=O)NCCc1ccccn1)C(=O)OCC (stereo not drawn) [Example 66, N-n-octyl-cis-3-{2-[ethyl-N-(2-(2-pyridyl)ethyl)malonamido]thio}acrylamide]	> 250 µg/mL	63 µg/mL (≈ 140 µM)	> 250 µg/mL			< 2 µg/mL	> 250 µg/mL	< 2 µg/mL	40%	< 2 µg/mL	0%				0%	0%		0%	pest or weed control at 100 ppm [10]: 100%
CCCCCCCCNC(=O)/C=C\SC(C(=O)c1ccccc1)C(=O)c1ccccc1 [Example 67, N-n-octyl-cis-3-[2-(1,3-diphenyl-1,3-propanedionyl)thio]acrylamide]									0%		0%				0%	90%	0%	0%	
CCCCCCCCNC(=O)/C=C\SC(C(=O)c1ccccc1)C(=O)c1cccn1C (stereo not drawn) [Example 68, N-n-octyl-cis-3-{2-[1-phenyl-3-(1-methylpyrroyl-2-yl)-1,3-propanedionyl]thio}acrylamide]							> 250 µg/mL		60%		0%				0%	80%	0%	0%	
